In patent US20260364057A1, “AMIDE COMPOUND, AND COMPOSITION AND USE THEREOF” (SIMCERE ZAIMING PHARMACEUTICAL CO., LTD., priority 2022, published 2026) one finds IC50 data, which are given here for 39 molecules.

pIC50: −log10 of the molar value.

For the experiment, the target named is T1, Human KIF18A (1-376aa) (Homo sapiens, UniProt Q8NI77).
T1 construct: Human KIF18A (1-376aa) protease used in the experiments; purchased Shanghai Panchao Biotechnology Co., Ltd
T1 sequence (Q8NI77 1-376): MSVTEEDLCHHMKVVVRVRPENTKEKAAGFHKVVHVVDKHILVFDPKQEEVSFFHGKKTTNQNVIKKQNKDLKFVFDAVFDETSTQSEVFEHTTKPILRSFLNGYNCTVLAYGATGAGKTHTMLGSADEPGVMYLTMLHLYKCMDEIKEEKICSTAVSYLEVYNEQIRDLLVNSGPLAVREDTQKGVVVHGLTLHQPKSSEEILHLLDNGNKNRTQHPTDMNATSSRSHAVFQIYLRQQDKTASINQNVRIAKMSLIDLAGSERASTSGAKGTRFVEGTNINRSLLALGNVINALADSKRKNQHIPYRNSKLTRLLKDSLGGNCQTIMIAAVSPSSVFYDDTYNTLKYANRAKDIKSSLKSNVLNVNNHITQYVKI
The experiment in a line: KIF18A enzyme activity assay (ADP-Glo). It counts as biochemical. Particulars: microtubule 50 μg/mL, ATP (Km 70 μM), room temperature, 15 min, read-out: KIF18A inhibitory activity IC50. The protocol: Test Example 1: KIF18A Enzyme Activity Assay
Based on the ADP-Glo™ Kinase Assay, the ADP amount generated in the reaction was detected to reflect the enzyme activity of KIF18A.
Human KIF18A (1-376aa) […] used in the experiments, expressed by Shanghai Panchao Biotechnology Co., Ltd., was stored at −80 °C (no more than 5 freeze-thaw cycles).
The assay kit (ADP-Glo™ Kinase Assay) was purchased from Promega (Cat. No. V9101) and stored at −30 °C. The kit detects the enzyme activity by measuring ADP generated in enzyme reaction. The KIF18A enzyme and ATP generate ADP. The remaining ATP in this reaction is consumed by the ADP-Glo reagent, while the ADP generated by the KIF18A enzyme reaction is converted back to ATP by the assay reagent. The ATP then reacts with luciferin in the presence of Ultra-Glo™ luciferase, producing luminescence. The luminescent signal is positively correlated with the activity of the KIF18A enzyme.
Compounds were each subjected to 3-fold serial dilution starting from 10 μM to obtain 10 concentration points. The compounds and pure DMSO (control) were pipetted into wells of a 384-well plate using an Echo instrument, and the total volume of compound and DMSO was 100 nL; sample concentrations of gradient dilution were obtained by the instrument based on different ratios. Preparation of a KIF18A enzyme reaction buffer: […], 10 mM MgCl2, 0.01% Pluronic F-68, 1 μM Taxol, and 50 μg/mL Microtubule. KIF18A and the enzyme reaction buffer were mixed, and then the mixed solution was added to the 384-well plate and incubated at room temperature for 15 min. ATP (Km 70 μM) was then added to the mixed solution, and the mixed solution was incubated at room temperature for 15 min. 10 μL of ADP-Glo™ Reagent was well mixed with 10 μL of the mixed solution, and the mixture was incubated at room temperature for 40 min. Finally, 20 μL of ADP-Glo™ Detection Reagent was added, and the mixture was incubated at room temperature for 30 min. The chemiluminescent signal in each well was measured using an Envision plate reader (PerkinElmer, emission wavelength: 400-700 nm). In the experiment, 1 column of wells with no compound and no enzyme (chemiluminescence value was taken as [RLU]background) and 1 column of wells with enzyme but no compound (chemiluminescence value was taken as [RLU]enzyme) were provided. The chemiluminescence value of the compound adding group was taken as [RLU]cpd. The inhibition rate of the compound on […] was calculated according to the following equation: inhibition rate (%)=([RLU]enzyme−[RLU]cpd)/([RLU]enzyme−[RLU]background)×100%, and the inhibitory activity IC50 value of the compound on the enzyme activity was calculated using a four-parameter Logistic Model method. In the following equation, x represents the logarithmic form of the concentration of compound, and f (x) represents an effect value (inhibition rate of enzyme activity at the concentration): F(x)=(A+((B−A)/(1+((C/x)^D)))). A. B, C, and D are four parameters.
Background: ADP-Glo first removes unused ATP, then detects ADP through luciferase.
One may read the pIC50 as the IC50 on a negative log10 scale, so that one unit is a factor of ten. As to `Cn1c(N2CCC(F)(F)CC2)nc(NC(=O)c2ccc(NS(=O)(=O)CCO)cc2N2CCC3(CC2)CC3)cc1=O` [Compound 2], the pIC50 was more than 6.70.
Next, `Cc1nc2c(NC(=O)c3ccc(NS(=O)(=O)CCO)cc3N3CCC4(CC3)CC4)cccn2n1` [Compound 3]: more than 6.70; `O=C(Nc1cccc2c1ccn2C1CCC1)c1ccc(NS(=O)(=O)CCO)cc1N1CCC2(CC1)CC2` [Compound 4]: more than 6.70.
Next, `O=C(Nc1ccnc2c1ccn2CCC(F)(F)F)c1ccc(NS(=O)(=O)CCO)cc1N1CCC2(CC1)CC2` [Compound 5]: more than 6.70; `CC(C)n1ccc2c(NC(=O)c3ccc(NS(=O)(=O)CCO)cc3N3CCC4(CC3)CC4)ccnc21` [Compound 6]: more than 6.70; `Cc1ccnc2c(NC(=O)c3ccc(NS(=O)(=O)CCO)cc3N3CCC4(CC3)CC4)ccnc12` [Compound 7]: more than 6.70.
In the case of `O=C(Nc1cccc2c1oc1ccccc12)c1ccc(NS(=O)(=O)CCO)cc1N1CCC2(CC1)CC2` [Compound 8] it was more than 6.70; in that of `Cc1nc2c(NC(=O)c3ccc(NS(=O)(=O)CCO)cc3N3CCC4(CC3)CC4)cccn2c1C` [Compound 9], more than 6.70.
Regarding `O=C(Nc1ccnc2c1OCC1CCCCN21)c1ccc(NS(=O)(=O)CCO)cc1N1CCC2(CC1)CC2` (stereo not drawn) [Compound 10], the negative logarithm of the IC50 (pIC50) was more than 6.70.
Next, `O=C(Nc1cc2nccn2c(OCCC(F)(F)F)n1)c1ccc(NS(=O)(=O)CCO)cc1N1CCC2(CC1)CC2` [Compound 13]: more than 6.70; `Cn1ccc2ccc(NC(=O)c3ccc(NS(=O)(=O)CCO)cc3N3CCC4(CC3)CC4)nc21` [Compound 15]: more than 6.70; `CN1CCc2ccc(NC(=O)c3ccc(NS(=O)(=O)CCO)cc3N3CCC4(CC3)CC4)nc21` [Compound 16]: more than 6.70.
In the case of `Cc1cc(NC(=O)c2ccc(NS(=O)(=O)CCO)cc2N2CCC3(CC2)CC3)c2nc3c(n2c1)CCCC3` [Compound 18] it was more than 6.70; in that of `CN1CCOc2ccc(NC(=O)c3ccc(NS(=O)(=O)CCO)cc3N3CCC4(CC3)CC4)nc21` [Compound 19], more than 6.70.
Next, `O=C(Nc1cc2nccn2c(N2CCC3(CC2)CC3)n1)c1ccc(NS(=O)(=O)CCO)cc1N1CCC2(CC1)CC2` [Compound 20]: more than 6.70; `O=C(Nc1cccc2c1nc1n2CCC1)c1ccc(NS(=O)(=O)CCO)cc1N1CCC2(CC1)CC2` [Compound 23]: more than 6.70; `O=C(Nc1cccc2c1nc1n2CC(F)(F)CC1)c1ccc(NS(=O)(=O)CCO)cc1N1CCC2(CC1)CC2` [Compound 25]: more than 6.70.
On to `O=C(Nc1ccc2cc3n(c2n1)CCCC3)c1ccc(NS(=O)(=O)CCO)cc1N1CCC2(CC1)CC2` [Compound 26], for which the pIC50 was more than 6.70.
In the case of `C=Cc1cc2c(NC(=O)c3ccc(NS(=O)(=O)CCO)cc3N3CCC4(CC3)CC4)ccnc2n1C` [Compound 27] it was more than 6.70.
Regarding `Cc1cnc2c(NC(=O)c3ccc(NS(=O)(=O)CCO)cc3N3CCC4(CC3)CC4)snc2c1` [Compound 32], the pIC50 was more than 6.70.
In the case of `O=C(Nc1ccc(F)c2c1nc1n2CCCC1)c1ccc(NS(=O)(=O)CCO)cc1N1CCC2(CC1)CC2` [Compound 33] it was more than 6.70; in that of `O=C(Nc1ccnc2c1nc1n2CCCC1)c1ccc(NS(=O)(=O)CCO)cc1N1CCC2(CC1)CC2` [Compound 36], more than 6.70.
Turning to `O=C(Nc1cncc2c1nc1n2CCCC1)c1ccc(NS(=O)(=O)CCO)cc1N1CCC2(CC1)CC2` [Compound 43], the pIC50 is more than 6.30.
Next, `O=C(Nc1cccc2c1nc1n2C2CC(C1)C2)c1ccc(NS(=O)(=O)CCO)cc1N1CCC2(CC1)CC2` [Compound 46]: more than 6.70; `O=C(Nc1snc2cc3c(nc12)CCCC3)c1ccc(NS(=O)(=O)CCO)cc1N1CCC2(CC1)CC2` [Compound 52]: more than 6.70.
Next, `CC(C)c1cnc2c(NC(=O)c3ccc(NS(=O)(=O)CCO)cc3N3CCC4(CC3)CC4)snc2c1` [Compound 57]: more than 6.70.
Consider `COC1Cc2nc3c(NC(=O)c4ccc(NS(=O)(=O)CCO)cc4N4CCC5(CC4)CC5)cccc3n2C1` (stereo not drawn) [Compound 62], for which the pIC50 is more than 6.70.
In the case of `COC1CCn2c1nc1c(NC(=O)c3ccc(NS(=O)(=O)CCO)cc3N3CCC4(CC3)CC4)cccc12` (stereo not drawn) [Compound 63] it was more than 6.70.
Next, `O=C(Nc1cc2c(c(N3CCC(F)(F)CC3)n1)CCC2)c1ccc(NS(=O)(=O)CCO)cc1N1CCC2(CC1)CC2` [Compound 66]: more than 6.30; `O=C(Nc1cccc2c1nc1n2C2CC2CC1)c1ccc(NS(=O)(=O)CCO)cc1N1CCC2(CC1)CC2` (stereo not drawn) [Compound 69]: more than 6.70; `O=C(Nc1ccc(=O)n(C2=CCC(F)(F)CC2)n1)c1ccc(NS(=O)(=O)CCO)cc1N1CCC2(CC1)CC2` [Compound 75]: more than 6.70.
In the case of `Cc1cc(NC(=O)c2ccc(NS(=O)(=O)CCO)cc2N2CCC3(CC2)CC3)c2nc3n(c2n1)CCCCC3` [Compound 79] it was more than 6.70; in that of `O=C(Nc1cccc2c1nc1n2CC2(CC2)C1)c1ccc(NS(=O)(=O)CCO)cc1N1CCC2(CC1)CC2` [Compound 84], more than 6.30.
Turning to `O=C(Nc1cccc2c1nc1n2CCC12CC2)c1ccc(NS(=O)(=O)CCO)cc1N1CCC2(CC1)CC2` [Compound 85], the pIC50 was more than 6.30.
Next, `CN1CCn2c(nc3c(NC(=O)c4ccc(NS(=O)(=O)CCO)cc4N4CCC5(CC4)CC5)cccc32)C1` [Compound 89]: more than 6.30; `O=C(Nc1cccc2c1nc1n2C2CC2C1)c1ccc(NS(=O)(=O)CCO)cc1N1CCC2(CC1)CC2` (stereo not drawn) [Compound 90]: more than 6.70.
Next, `O=C(Nc1cccc2c1nc1n2CCC2(CC2)C1)c1ccc(NS(=O)(=O)CCO)cc1N1CCC2(CC1)CC2` [Compound 91]: more than 6.70; `O=C(Nc1cn(C2CC2)c(=O)c(N2CCC(F)(F)CC2)n1)c1ccc(NS(=O)(=O)CCO)cc1N1CCC2(CC1)CC2` [Compound 93]: more than 6.70; `CC1(C)C2Cn3c(nc4c(NC(=O)c5ccc(NS(=O)(=O)CCO)cc5N5CCC6(CC5)CC6)cccc43)C21` (stereo not drawn) [Compound 95]: more than 6.70.
